From patent US11737999B2, “Amino acid compositions and methods for the treatment of post-acute sequelae of COVID-19” (AXCELLA HEALTH INC., priority 2021, dated 2023)

Legend:
MCP1/CCL2 = MCP1/CCL2 secretion by ELISA in primary human hepatocytes with FFA + TNFα; type: cell-based
MCP-1 = MCP-1 chemokine secretion in primary human hepatic stellate cells stimulated with TNFα; type: cell-based; conditions: hepatic stellate cells, two donors
IL-6 [1] = assay: IL-6 cytokine secretion in primary human hepatic stellate cells stimulated with TNFα; type: cell-based; conditions: hepatic stellate cells, two donors
Col1a1 = Col1a1 gene expression (RT-qPCR) in primary human hepatic stellate cells stimulated with TGFβ1; type: cell-based
Procollagen Iα1 = Procollagen Iα1 secretion (ELISA) in primary human hepatic stellate cells stimulated with TGFβ1; type: cell-based; conditions: for Procollagen lα1 Secretion (Fold Change of 1X), Mean: first donor, TGFβ1 3 ng/mL 24 h
IL-6 [2] = assay: LPS-induced IL-6 secretion in primary human monocyte-derived macrophages; conditions: for IL-6 Measurements, Mean: 0.15 ng/mL LPS, baseline subtracted values
TNF-α = assay: LPS-induced TNF-α secretion in primary human monocyte-derived macrophages; conditions: for TNF-α Measurements Mean (baseline subtracted): 0.15 ng/mL LPS
[3] = hepatic stellate cells, three donors

## CC(=O)N[C@@H](CS)C(=O)O [N-Acetyl Cysteine, N-acetylcysteine]
MCP1/CCL2; Donor 1, Conc. 1000 μM
  MCP1 expression relative to Control, Mean: −0.7629
MCP1/CCL2; Donor 1, Conc. 2500 μM
  MCP1 expression relative to Control, Mean: −2.498
MCP1/CCL2; Donor 1, Conc. 5000 μM
  MCP1 expression relative to Control, Mean: −10.8919
MCP1/CCL2; Donor 1, Conc. 10000 μM
  MCP1 expression relative to Control, Mean: −17.6065
MCP1/CCL2; Donor 2, Conc. 1000 μM
  MCP1 expression relative to Control, Mean: 1.602
MCP1/CCL2; Donor 2, Conc. 2500 μM
  MCP1 expression relative to Control, Mean: −4.0591
MCP1/CCL2; Donor 2, Conc. 5000 μM
  MCP1 expression relative to Control, Mean: −10.5725
MCP1/CCL2; Donor 2, Conc. 10000 μM
  MCP1 expression relative to Control, Mean: −28.4419
MCP1/CCL2; primary human hepatocytes, two healthy donors
  MCP1/CCL2 secretion (summary in words): significantly decrease MCP1/CCL2 secretion
MCP-1
  MCP-1 secretion (summary in words): significantly reduced MCP-1 secretion in both donors
IL-6 [1]
  IL-6 secretion (summary in words): reduced IL-6 secretion in both donors but was only statistically significant in one of two donors
Col1a1; first donor, 1000 μM, single amino acid
  Col1a1 Fold Expression Relative to Control, Mean: 1.00 fold
Col1a1; first donor, 10000 μM, single amino acid
  Col1a1 Fold Expression Relative to Control, Mean: 0.76 fold
Col1a1; first donor, 5X, normalized to Gapdh, TGFβ1 3 ng/mL 24 h
  Col1a1 Fold Expression Relative to Control, Mean: 1.00 fold
Col1a1; first donor, 10X, normalized to Gapdh, TGFβ1 3 ng/mL 24 h
  Col1a1 Fold Expression Relative to Control, Mean: 1.07 fold
Col1a1; first donor, 20X, normalized to Gapdh, TGFβ1 3 ng/mL 24 h
  Col1a1 Fold Expression Relative to Control, Mean: 1.02 fold
Col1a1; first donor, 40X, normalized to Gapdh, TGFβ1 3 ng/mL 24 h
  Col1a1 Fold Expression Relative to Control, Mean: 0.76 fold
Col1a1; [3]
  Col1a1 gene expression (summary in words): significantly reduced Col1a1 gene expression in all three donors
Col1a1; second donor (Table 27), 1000 μM, single amino acid
  Col1a1 Fold Expression Relative to Control, Mean: 0.69 fold
Col1a1; second donor (Table 27), 2500 μM, single amino acid
  Col1a1 Fold Expression Relative to Control, Mean: 0.69 fold
Col1a1; second donor (Table 27), 5000 μM, single amino acid
  Col1a1 Fold Expression Relative to Control, Mean: 0.69 fold
Col1a1; second donor (Table 27), 10000 μM, single amino acid
  Col1a1 Fold Expression Relative to Control, Mean: 0.57 fold
Col1a1; second donor (Table 29), 1000 μM, single amino acid
  Col1a1 Fold Expression Relative to Control, Mean: 0.91 fold
Col1a1; second donor (Table 29), 2500 μM, single amino acid
  Col1a1 Fold Expression Relative to Control, Mean: 0.82 fold
Col1a1; second donor (Table 29), 5000 μM, single amino acid
  Col1a1 Fold Expression Relative to Control, Mean: 0.73 fold
Col1a1; second donor (Table 29), 10000 μM, single amino acid
  Col1a1 Fold Expression Relative to Control, Mean: 0.62 fold
Col1a1; second donor, 5X, normalized to Gapdh, TGFβ1 3 ng/mL 24 h
  Col1a1 Fold Expression Relative to Control, Mean: 0.69 fold
Col1a1; second donor, 10X, normalized to Gapdh, TGFβ1 3 ng/mL 24 h
  Col1a1 Fold Expression Relative to Control, Mean: 0.69 fold
Col1a1; second donor, 20X, normalized to Gapdh, TGFβ1 3 ng/mL 24 h
  Col1a1 Fold Expression Relative to Control, Mean: 0.69 fold
Col1a1; second donor, 40X, normalized to Gapdh, TGFβ1 3 ng/mL 24 h
  Col1a1 Fold Expression Relative to Control, Mean: 0.57 fold
Col1a1; third donor, 5X, normalized to Gapdh, TGFβ1 3 ng/mL 24 h
  Col1a1 Fold Expression Relative to Control, Mean: 0.91 fold
Col1a1; third donor, 10X, normalized to Gapdh, TGFβ1 3 ng/mL 24 h
  Col1a1 Fold Expression Relative to Control, Mean: 0.82 fold
Col1a1; third donor, 20X, normalized to Gapdh, TGFβ1 3 ng/mL 24 h
  Col1a1 Fold Expression Relative to Control, Mean: 0.73 fold
Col1a1; third donor, 40X, normalized to Gapdh, TGFβ1 3 ng/mL 24 h
  Col1a1 Fold Expression Relative to Control, Mean: 0.62 fold
Procollagen Iα1; 5X
  Procollagen lα1 Secretion (Fold Change of 1X), Mean: 0.9175 fold
Procollagen Iα1; 10X
  Procollagen lα1 Secretion (Fold Change of 1X), Mean: 0.7939 fold
Procollagen Iα1; 20X
  Procollagen lα1 Secretion (Fold Change of 1X), Mean: 0.6593 fold
Procollagen Iα1; 40X
  Procollagen lα1 Secretion (Fold Change of 1X), Mean: 0.5076 fold
Procollagen Iα1; [3]
  procollagen Iα1 secretion (summary in words): significantly decrease procollagen Iα1 secretion in two of the three donors
Procollagen Iα1; second donor, Conc. 5 X
  Procollagen Iα1 Secretion, Mean: 0.8387 Fold Change of 1X
Procollagen Iα1; second donor, Conc. 10 X
  Procollagen Iα1 Secretion, Mean: 0.8877 Fold Change of 1X
Procollagen Iα1; second donor, Conc. 20 X
  Procollagen Iα1 Secretion, Mean: 0.7378 Fold Change of 1X
Procollagen Iα1; second donor, Conc. 40 X
  Procollagen Iα1 Secretion, Mean: 0.8383 Fold Change of 1X
Procollagen Iα1; third donor, Conc. 5 X
  Procollagen Iα1 Secretion, Mean: 1.0897 Fold Change of 1×
Procollagen Iα1; third donor, Conc. 10 X
  Procollagen Iα1 Secretion, Mean: 0.9391 Fold Change of 1×
Procollagen Iα1; third donor, Conc. 20 X
  Procollagen Iα1 Secretion, Mean: 0.8521 Fold Change of 1×
Procollagen Iα1; third donor, Conc. 40 X
  Procollagen Iα1 Secretion, Mean: 0.6962 Fold Change of 1×
IL-6 [2]; Donor 1
  LPS-induced IL-6 secretion (summary in words): significantly reduced LPS-induced IL-6 secretion
IL-6 [2]; Donor 2
  LPS-induced IL-6 secretion (summary in words): significantly reduced LPS-induced IL-6 secretion
IL-6 [2]; Donor 2, Conc. 5 X
  IL-6 Measurements, Mean: −0.7946
IL-6 [2]; Donor 2, Conc. 10 X
  IL-6 Measurements, Mean: −9.751
IL-6 [2]; Donor 2, Conc. 40 X
  IL-6 Measurements, Mean: −33.7585
IL-6 [2]; Donor 3
  LPS-induced IL-6 secretion (summary in words): significantly reduced LPS-induced IL-6 secretion
TNF-α; Donor 1
  LPS-induced TNF-α secretion (summary in words): significantly reduced LPS-induced TNF-α secretion
TNF-α; Donor 1, Conc. 0 X (baseline)
  TNF-α Measurements Mean (baseline subtracted): 0
TNF-α; Donor 1, Conc. 5 X
  TNF-α Measurements Mean (baseline subtracted): −326.24
TNF-α; Donor 1, Conc. 10 X
  TNF-α Measurements Mean (baseline subtracted): −446.88
TNF-α; Donor 1, Conc. 20 X
  TNF-α Measurements Mean (baseline subtracted): −561.33
TNF-α; Donor 1, Conc. 40 X
  TNF-α Measurements Mean (baseline subtracted): −644.49
TNF-α; Donor 2
  LPS-induced TNF-α secretion (summary in words): significantly reduced LPS-induced TNF-α secretion
TNF-α; Donor 2, Conc. 0 X (baseline)
  TNF-α Measurements Mean (baseline subtracted): 9.47E−15
TNF-α; Donor 2, Conc. 5 X
  TNF-α Measurements Mean (baseline subtracted): −54.1596
TNF-α; Donor 2, Conc. 10 X
  TNF-α Measurements Mean (baseline subtracted): −70.8382
TNF-α; Donor 2, Conc. 20 X
  TNF-α Measurements Mean (baseline subtracted): −88.6528
TNF-α; Donor 2, Conc. 40 X
  TNF-α Measurements Mean (baseline subtracted): −103.984
TNF-α; Donor 3
  LPS-induced TNF-α secretion (summary in words): significantly reduced LPS-induced TNF-α secretion
TNF-α; Donor 3, Conc. 0 X (baseline)
  TNF-α Measurements Mean (baseline subtracted): 4.74E−15
TNF-α; Donor 3, Conc. 5 X
  TNF-α Measurements Mean (baseline subtracted): −33.6246
TNF-α; Donor 3, Conc. 10 X
  TNF-α Measurements Mean (baseline subtracted): −41.7266
TNF-α; Donor 3, Conc. 20 X
  TNF-α Measurements Mean (baseline subtracted): −48.4373
TNF-α; Donor 3, Conc. 40 X
  TNF-α Measurements Mean (baseline subtracted): −55.3093
